Values quoted from earlier work, collected in patent US8716182B2, “Liquid aqueous crop protection formulations” (BASF SE, priority 2008, dated 2014).

Conditions: miscible means fully miscible with water

SMILES | solubility in water at 20° C.
C[S+](C)[O-] [DMSO, dimethyl sulfoxide] | (miscible)
O=C1CCCO1 [γ-butryrolacton, γ-butyrolactone] | (miscible)
CC(=O)OCC(COC(C)=O)OC(C)=O [triacetin] | (64 g/l)
OCC1CCCO1 (stereo not shown) [tetrahydrofurfuryl alcohol] | (miscible)
COCC(C)OC(C)=O (stereo not shown) [Arcosolv ® PMA, 1-methoxy-2-propanol acetate] | acetate)(400 g/l)
CCCOC(=O)C(C)O (stereo not shown) [Purasolv ® NPL, n-propyl lactate] | (miscible)
OCCOc1ccccc1 [Agrisol PX401, 2-phenoxyethanol] | (24 g/l)
